ChEMBL document CHEMBL1124201, “Optimizing of 2,3-diarylindenes as fluorescent estrogens: variation of the acceptor group, ortho substitution of the 2-ring, and C-1 methylation” (J Med Chem, 1988)

Biological target: Estrogen receptor (Rattus norvegicus) (UniProt P06211+Q62986)
Experiment: Displacement of [3H]estradiol from estrogen receptor of rat uterine cytosol
Assay type: protein assay

SMILES | RBA [%]
CC1C(c2ccccc2)=C(c2ccccc2)c2ccc(O)cc21 (stereo unspecified) | 12
Oc1ccc(C2=C(c3ccc(Br)cc3)Cc3cc(O)ccc32)cc1 | 0.76
Oc1ccc(C2=C(c3ccccc3C(F)(F)F)Cc3cc(O)ccc32)cc1 | 38
N#Cc1ccc(C2=C(c3ccc(O)cc3)c3ccc(O)cc3C2)cc1 | 1
Cc1ccccc1C1=C(c2ccc(O)cc2)c2ccc(O)cc2C1 | 30
Oc1ccc(C2=C(c3cccnc3)Cc3cc(O)ccc32)cc1 | 0.05
Oc1ccc(C2=C(c3ccccc3)Cc3cc(O)ccc32)cc1 | 4.7
O=[N+]([O-])c1cccc(C2=C(c3ccc(O)cc3)c3ccc(O)cc3C2)c1 | 0.6
Oc1ccc(C2=C(c3ccccc3)c3ccc(O)cc3C2)cc1 | 28
O=[N+]([O-])c1ccc(C2=C(c3ccc(O)cc3)c3ccc(O)cc3C2)cc1 | 0.69
O=[N+]([O-])c1ccc(C2=C(c3ccccc3)c3ccc(O)cc3C2)cc1 | 0.46
